# Measured values reported in patent publication US20200369674A1, “ANTI-PAIN COMPOUND AND PREPARATION METHOD THEREOF” (LUNAN PHARMACEUTICAL GROUP CORPORATION, priority 2017, published 2020).
# Experiments:
# CCI rats [1] = test: Mechanical stimulation paw withdrawal threshold (MWT) in CCI rats; format: in vivo, SD rats; conditions: for inhibition rate (absolute %): PTE % vs vehicle; for MWT: mean±SEM; for inhibition rate (relative %): relative to sham minus vehicle
# Description: (§1) SD rats, body weight 180 g-220 g, half of them being male and the other half being female, provided by the Department of Laboratory Animals, Peking University. The rats were raised in a standard environment with temperature of 22±0.5° C. and relative humidity of 55±5%, 12 h/12 h light-dark cycle, and fed with standard feed.
# (§2) Rat was anesthetized with pentobarbital sodium (60 mg/kg, i.p.), the right hind limb was surgically shaved, fixed in the prone position, a longitudinal incision was made along the middle of the right hind limb of the rat, the muscle was bluntly separated, the sciatic nerve was exposed, and the sciatic nerve bifurcate proximal end was loosely ligated with 4-0 silk suture for 4 times, with an interval of about 1 mm each time, in which the degree of tightness was suitable when it was observed that the right hind leg was slightly shaken. After ligation, the muscle and skin were sutured in sequence. For the sham-operated group, the sciatic nerve was only exposed, but not ligated. The success of modeling was determined by observing whether the hind limb of the rat's operation side was closed, slightly valgus and often vacated, and by measuring the mechanical stimulation paw withdrawal threshold and the thermal stimulation paw withdrawal latency of the rat.
# (§3) Before surgery, the mechanical stimulation paw withdrawal thresholds and the thermal stimulation paw withdrawal latencies in the rats were determined, and the rats were grouped as: sham operation group (sham), vehicle group (double-distilled water, i.g.), DXL-A-22 group (2 mg/kg, i.g.), DXL-A-24 group (1 mg/kg, i.g.), and Gabapentin group (100 mg/kg, i.g.). All compounds and drugs were dissolved in double-distilled water, and given by intragastric administration at 1 mL/100 g. From the first day after surgery, the administration was carried out every day, and the mechanical stimulation paw withdrawal threshold and the thermal stimulation paw withdrawal latency were measured 2 hours after administration.
# The mechanical stimulation paw withdrawal threshold (MWT) of rats was detected by von Frey electronic pain tester. The measurement was carried out on the days 5, 7 and 14 after operation. The rats were placed in a transparent plexiglass box (whose bottom was a wire mesh with a gap of 1 mm^2) to adapt to the environment for 30 min. After the rats had no exploration action, the von Frey electronic pain tester was used to stimulate the middle position of paw at the operation side of the rat, and the maximum force caused by rat paw withdrawal response (i.e., MWT) was recorded. The inhibition rate of the compound was calculated according to the following formula:
# Absolute increase rate (i.e., PTE %): PTE %=(MWT of test group−MWT of vehicle group)/MWT of vehicle group×100 (1)
# Relative increase rate: Inhibition rate %=(MWT of test group−MWT of vehicle group)/(MWT of Sham operation group−MWT of vehicle group)×100 (2)
# CCI rats [2] = test: Thermal stimulation paw withdrawal latency (PWL) in CCI rats; format: in vivo, SD rats; conditions: for PWL: hot plate 50.5° C., cut-off 14s, mean±SEM
# Description: as §1, §2, §3
# The thermal stimulation paw withdrawal latency (PWL) was measured by a hot plate method. The measurement was carried out on the days 5, 7 and 14 after operation. The temperature of the hot plate was 50.5° C. Timing started when the rat was placed on the hot plate, and stopped when the shaking and foot licking responses of the rat appeared, and this time was the PWL of the rat. The hot plate cut-off time was 14s, and the percentage of analgesia (i.e., MPE %) was calculated according to formula (3):
# MPE %=(PWL of test group−PWL of vehicle group)/(cut-off time−PWL of vehicle group)×100 (3)
# ICR mice [3] = test: Formalin experiment; format: in vivo; conditions: Mus musculus, po, 2 h; 1 mg/kg intragastric, 2.5% formalin two hours after administration, phase II 10-60 minutes; read-out: Phase II pain inhibition rate (%)
# Description: ICR mice, 18-22 g, half of them being male and the other half being female, provided by the Department of Laboratory Animals, Peking University (License No.: SCXK (Beijing) 2016-0010).
# ICR mice, half of them being male and the other half being female, were randomly grouped, 8 mice per group. Vehicle control group (double-distilled water) and groups for samples to be tested were set, in which the compounds and doses thereof were shown in Table 3. All drugs were dissolved in double-distilled water before administration, and given by intragastric administration at predetermined doses. Two hours after administration, the mice were injected with 20 ul of 2.5% formalin solution in the right hind foot, and the time (s) of licking or biting foot was recorded as an index of pain response, in which 0-5 minutes was phase I, 10-60 minutes was phase II, and the total observation time was 60 minutes. The phase II pain inhibition rate of compound in mice was calculated according to the following formula:
# Inhibition rate %=(time of licking or biting foot in vehicle control group−time of licking or biting foot in test group)/time of licking or biting foot in vehicle control group×100
# ICR mice [4] = test: Xylene-induced ear swelling test in mice (Effect Example 6); format: in vivo; conditions: 1 mg/kg i.g., 30 μL xylene one hour after administration; for Swelling degree: mean±SD
# Description: ICR mice, body weight 18 g-22 g, half of them being male and the other half being female, provided by the Department of Laboratory Animals, Peking University. The animals were raised in a standard environment: temperature 23±1° C., relative humidity 55±5%, light-dark cycle 12 h/12 h, and fed with standard pellet feed.
# Mice were randomly divided into 5 groups, 8 mice per group, half of them being male and the other half being female. Vehicle control group (double-distilled water, i.g.), dexamethasone control group (2 mg/kg, i.g.), compound DXL-A-22 group (1 mg/kg, i.g.), and compound DXL-A-24 group (1 mg/kg, i.g.) were set. All drugs were dissolved in double-distilled water before administration, and given by intragastric administration at 0.1 mL/10 g. One hour after administration, 30 μL of xylene was evenly smeared on the inner and outer sides of right ear of mouse to cause inflammation. After 0.5 hour, the left and right ears of mouse were cut, and circular ear pieces of the same size were punched at the same position on the left and right ears using the punch (diameter 6 mm) respectively, and weighed for the weights of the left and right ear pieces. The difference between the weight of the right ear after applying xylene and the weight of the left ear without applying xylene was used as swelling degree index (i.e., swelling degree). The swelling degree was calculated according to formula (1). The intensity of anti-inflammatory effect was expressed as inhibition rate (%), and the inhibition rate (%) was calculated according to formula (2).
# Swelling degree=weight of right ear piece−weight of left ear piece (1)
# Inflammation inhibition rate (%)=(ear swelling degree in vehicle control group−ear swelling degree in drug group)/ear swelling degree in vehicle control group×100% (2)
# [5] = 2 mg/kg i.g. daily, Day 5 after operation, section 3.1
# [6] = 2 mg/kg i.g. daily, Day 7 after operation, section 3.1
# [7] = 2 mg/kg i.g. daily, Day 14 after operation, section 3.1
# [8] = 2 mg/kg i.g. daily, Day 5 after operation, section 3.2
# [9] = 2 mg/kg i.g. daily, Day 7 after operation, section 3.2
# [10] = 2 mg/kg i.g. daily, Day 14 after operation, section 3.2
# [11] = 1 mg/kg i.g. daily, Day 5 after operation, section 3.3
# [12] = 1 mg/kg i.g. daily, Day 7 after operation, section 3.3
# [13] = 1 mg/kg i.g. daily, Day 14 after operation, section 3.3
# [14] = 1 mg/kg i.g. daily, Day 5 after operation, section 3.4
# [15] = 1 mg/kg i.g. daily, Day 7 after operation, section 3.4
# [16] = 1 mg/kg i.g. daily, Day 14 after operation, section 3.4
compound,measurement,setting,value
"Br.Brc1ccc(N2CC[N+]3(CCCC3)CC2)cc1 [DXL-A-22, 8-(4-bromophenyl)-5,8-diazaspiro[4.5]decan-5-ium bromide]",inhibition rate (absolute %),CCI rats [1]; [5],76.88%
same,MWT,CCI rats [1]; [5],19.28 ± 1.44**/
same,inhibition rate (relative %),CCI rats [1]; [5],31.01%
same,inhibition rate (absolute %),CCI rats [1]; [6],116.83%
same,MWT,CCI rats [1]; [6],22.16 ± 0.79**/
same,inhibition rate (relative %),CCI rats [1]; [6],43.18%
same,inhibition rate (absolute %),CCI rats [1]; [7],108.81%
same,MWT,CCI rats [1]; [7],22.05 ± 0.74**/
same,inhibition rate (relative %),CCI rats [1]; [7],41.26%
same,PWL,CCI rats [2]; [8],10.84 ± 0.32**/
same,MPE(%),CCI rats [2]; [8],51.61%
same,PWL,CCI rats [2]; [9],11.28 ± 0.64**/
same,MPE(%),CCI rats [2]; [9],58.91%
same,PWL,CCI rats [2]; [10],11.19 ± 0.52**/
same,MPE(%),CCI rats [2]; [10],55.61%
same,inhibition in vivo at 1 mg/kg,ICR mice [3],52.6%
same,Inhibition rate (%),ICR mice [4],42.62%
same,Swelling degree,ICR mice [4],5.48 ± 0.16 mg
"FC(F)(F)c1ccc(N2CC[N+]3(CCCC3)CC2)cc1.[Br-] [DXL-A-24, 8-(4-(trifluoromethyl)phenyl)-5,8-diazaspiro[4.5]decan-5-ium bromide]",inhibition rate (absolute %),CCI rats [1]; [11],75.78%
same,MWT,CCI rats [1]; [11],20.32 ± 1.09**/
same,inhibition rate (relative %),CCI rats [1]; [11],35.35%
same,inhibition rate (absolute %),CCI rats [1]; [12],117.94%
same,MWT,CCI rats [1]; [12],22.84 ± 1.64**/
same,inhibition rate (relative %),CCI rats [1]; [12],47.89%
same,inhibition rate (absolute %),CCI rats [1]; [13],75.09%
same,MWT,CCI rats [1]; [13],20.31 ± 1.57**/
same,inhibition rate (relative %),CCI rats [1]; [13],33.24%
same,PWL,CCI rats [2]; [14],11.29 ± 0.57**/
same,MPE(%),CCI rats [2]; [14],52.62%
same,PWL,CCI rats [2]; [15],12.35 ± 0.55**/
same,MPE(%),CCI rats [2]; [15],72.36%
same,PWL,CCI rats [2]; [16],13.26 ± 0.43**/
same,MPE(%),CCI rats [2]; [16],88.79%
same,inhibition in vivo at 1 mg/kg,ICR mice [3],50.2%
same,Inhibition rate (%),ICR mice [4],51.41%
same,Swelling degree,ICR mice [4],4.64 ± 0.11 mg
